In ChEMBL document CHEMBL4014263, “Diterpenoids and Lignans from Cephalotaxus fortunei” (J Nat Prod, 2017) one finds inhibition of growth and IC50 data, which are given here for ten compounds.

For experiment [1], the system named is HL-60. As to the kind of experiment: Cytotoxicity against human HL60 cells assessed as growth inhibition at 10 uM by MTT assay relative to control. The format is functional. The note with it: read-out: GI.
The subject of experiment [2] is A549. Nature of the experiment: Cytotoxicity against human A549 cells assessed as growth inhibition at 10 uM by SRB assay relative to control. The note with it: read-out: GI. It counts as functional.
Experiment [3] has as its system HL-60. Nature of the experiment: Cytotoxicity against human HL60 cells by MTT assay. The format is functional, cell-based.
The subject of experiment [4] is A549. Nature of the experiment: Cytotoxicity against human A549 cells by SRB assay. The format is functional, cell-based.

As for `COc1cc(C[C@@]2(O)C(=O)O[C@@H](c3ccc(O)c(OC)c3)[C@@H]2CO)ccc1O`, the inhibition of growth at 10 µM in the experiment on HL-60 [1] and with A549 [2] was less than 50% each time.
Regarding `C[C@@H]1[C@@H](O)[C@@H]2OC(=O)[C@]13CC[C@@H]1C[C@@H](O)C[C@H](C)C4=C1[C@@H]3[C@@H]2C4=O`, the inhibition of growth at 10 µM in the experiment on HL-60 [1] and in the experiment on A549 [2] was less than 50% each time.
As for `Cc1cc(=O)cc2c3c1C[C@@H]1[C@H]4OC(=O)[C@](CC2)([C@H](C)[C@H]4O)[C@]31O`, the inhibition of growth at 10 µM in the experiment on HL-60 [1] and in the experiment with A549 [2] was less than 50% in each case.
Consider `COc1cc([C@@H]2Oc3cc(OC)c(OC)cc3[C@H]2CO)ccc1O`, for which the inhibition of growth at 10 µM with HL-60 [1] and in the experiment on A549 [2] was less than 50% throughout.
As for `Cc1cc(=O)cc2c3c1[C@@H](O)[C@@H]1[C@H]4OC(=O)[C@](CC2)([C@H](C)[C@H]4O)[C@H]31`, the inhibition of growth at 10 µM in the experiment with HL-60 [1] and with A549 [2] was less than 50% throughout.
Take `CC(CO)c1cc2c(cc1O)[C@@]1(C)CC[C@H](O)C(C)(C)[C@@H]1CC2=O` (stereo not given in full): the inhibition of growth at 10 µM with HL-60 [1] and in the experiment with A549 [2] was less than 50% each time.
Consider `C[C@@H]1[C@@H](O)[C@@H]2OC(=O)[C@]13CC[C@@H]1C[C@H](O)C[C@H](C)C4=C1[C@@H]3[C@@H]2C4=O`, for which the inhibition of growth at 10 µM in the experiment with HL-60 [1] and in the experiment with A549 [2] was less than 50% each time.
With `COc1ccc(C[C@@]2(O)C(=O)O[C@@H](c3ccc(OC)c(OC)c3)[C@@H]2CO)cc1OC`, the inhibition of growth at 10 µM in the experiment on HL-60 [1] and in the experiment on A549 [2] was less than 50% throughout.
As to `Cc1cc(=O)cc2c3c1C(=O)[C@@H]1[C@H]4OC(=O)[C@](CC2)([C@H](C)[C@H]4O)[C@H]31`, the IC50 worked out at 770 nM with HL-60 [3] and 1130 nM with A549 [4].
For `COc1cccc2c1C(=O)c1c(O)c3c(c(O)c1C2=O)C[C@@](O)(C(=O)CO)C[C@@H]3O[C@H]1C[C@H](N)[C@H](O)[C@H](C)O1` [DOXORUBICIN], in that order: 31 nM and 124 nM.
